The results in this text go back to US8426420B2, “Heterocyclic pyrazole-carboxamidesas P2Y12 antagonists” (Sanofi, priority 2007, dated 2013).

human P2Y12 receptor, sequence (Q9H244 whole entry): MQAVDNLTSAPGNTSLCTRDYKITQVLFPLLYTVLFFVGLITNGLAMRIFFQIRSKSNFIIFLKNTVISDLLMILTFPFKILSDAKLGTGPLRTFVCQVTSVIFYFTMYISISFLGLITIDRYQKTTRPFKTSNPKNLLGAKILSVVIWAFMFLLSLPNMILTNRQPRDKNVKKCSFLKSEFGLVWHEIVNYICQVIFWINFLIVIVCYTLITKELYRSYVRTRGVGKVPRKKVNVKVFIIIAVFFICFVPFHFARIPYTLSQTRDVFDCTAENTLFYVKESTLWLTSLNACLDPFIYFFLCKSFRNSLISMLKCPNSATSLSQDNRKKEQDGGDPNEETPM

In this test the target is human P2Y12 receptor (Homo sapiens, UniProt Q9H244). Nature of the test: Human P2Y12 recombinant cell membrane binding assay with 33P 2MeS-ADP. The conditions noted are these: competition against 33P 2MeS-ADP, membranes of CHO cells with recombinant human P2Y12 receptor. The method, then:
The ability of the compounds of the formula Ito inhibit the P2Y12 receptor can be assessed by determining the concentration of the compound of the formula I that binds to the human P2Y12 Recombinant Cell Membrane Binding Assay with 33P 2MeS-ADP.
Human P2Y12 Recombinant Cell Membrane Binding Assay
The ability of a test compound to bind to the P2Y12 receptor was evaluated in a recombinant cell membrane binding assay. In this competitive binding assay, the test compound competed against a radiolabeled agonist for binding to the P2Y12 receptor, expressed on the cell membrane. Inhibition of binding of the labeled material was measured and correlated to the amount and potency of the test compound. This binding assay is a modification of the procedure described by Takasaki, J. et. al, Mol. Pharmacol., 2001, Vol. 60, pg. 432. A membrane preparation was prepared from Chinese Hamster Ovary (CHO) cells with recombinant expression of the human P2Y12 receptor according to standard procedures as a source of P2Y12.
To a 96-well microtiterplate the following were added: a) 24 μl of assay buffer (10 mM HEPES, 138 mM NaCl, […] KCl, 12 mM NaHCO3, 1 mM EDTA-Na, 0.1% BSA, pH 7.4) b) 1 μL compound in DMSO c) 50 μL P2Y12 CHO membrane (20 μg/ml) and after 15 min at RT d) 25 μL of 1.61 nM 33P 2MeS-ADP (Perkin Elmer NEN custom synthesis, specific activity ˜2100 Ci/mmol) made in assay buffer.
After 20 min incubation at RT samples were transferred to 96-well microtiter filterplates (Millipore HTS GF/B), pre-wetted for 20 min with 300 μL of stop buffer (10 mM HEPES, 138 mM NaCl pH 7.4) and then filtered through completely with a Millipore plate vacuum. Next, wells were washed four times with 400 μl/well of stop buffer on a plate vacuum. The plate was disassembled and allowed to air dry overnight with the filter side up over night. The filter plates were snapped into adapter plates and 0.1 mL of Microscint 20 Scintillation Fluid (Perkin Elmer #6013621) was added to each well. The top of the filterplate was sealed with plastic plate covers. The sealed filterplate were incubated 2 hours at RT. A Microbeta Scintillation Counter was used to measure counts.
Compounds were diluted as 10 mM DMSO stocks and tested in a four-point, five-fold dilution series run in triplicate beginning at 10 μM, final concentration. Data were analyzed using a four-parameter curve fit with a fixed minimum and maximum experimentally defined as the average positive and negative controls on each plate.
The term IC50 denotes the midpoint of a concentration-inhibition curve. On to `CCOC(=O)N1CCN(C(=O)[C@H](CCC(=O)O)NC(=O)c2cc(OCC(=O)N3CCC[C@H]3C(=O)NCC3CC3)n(-c3ccccc3)n2)[C@H](C)C1` [Example 152, (R)-4-[(S)-4-Carboxy-2-({5-[2-((S)-2-(cyclopropylmethyl-carbamoyl)-pyrrolidin-1-yl)-2-oxo-ethoxy]-1-phenyl-1H-pyrazole-3-carbonyl}-amino)-butyryl]-3-methyl-piperazine-1-carboxylic acid ethyl ester], for which the IC50 is 37 nM.

Consider `CCOC(=O)N1CCN(C(=O)[C@H](CNS(C)(=O)=O)NC(=O)c2cc(OCC(=O)N3CCC[C@H]3C(=O)NC3CCC3)n(-c3ccccc3)n2)CC1` [Example 88, 4-[(S)-2-({5-[2-((S)-2-Cyclobutylcarbamoyl-pyrrolidin-1-yl)-2-oxo-ethoxy]-1-phenyl-1H-pyrazole-3-carbonyl}-amino)-3-methanesulfonylamino-propionyl]-piperazine-1-carboxylic acid ethyl ester], for which the IC50 was determined as 125 nM.

As to `CCOC(=O)N1CCN(C(=O)[C@H](CCNC(=O)C(C)C)NC(=O)c2cc(OCC(=O)N3CCC[C@H]3C(=O)NC3CCC3)n(-c3ccccc3)n2)CC1` [Example 100, 4-[(S)-2-({5-[2-((S)-2-Cyclobutylcarbamoyl-pyrrolidin-1-yl)-2-oxo-ethoxy]-1-phenyl-1H-pyrazole-3-carbonyl}-amino)-4-isobutyrylamino-butyryl]-piperazine-1-carboxylic acid ethyl ester], the IC50 is 197 nM.

`CCCCOC(=O)NC1CCN(C(=O)[C@H](CCC(=O)O)NC(=O)c2cc(OCC(=O)N3CCC[C@H]3C(=O)NC3CCC3)n(-c3ccccc3)n2)CC1` [Example 102, (S)-5-(4-Butoxycarbonylamino-piperidin-1-yl)-4-({5-[2-((S)-2-cyclobutylcarbamoyl-pyrrolidin-1-yl)-2-oxo-ethoxy]-1-phenyl-1H-pyrazole-3-carbonyl}-amino)-5-oxo-pentanoic acid]: the IC50 was determined as 58 nM.

`CCOC(=O)N1CCN(C(=O)[C@H](CC(=O)O)NC(=O)c2cc(OCC(=O)N3CCC[C@H]3C(=O)NCCF)n(-c3cccc(F)c3)n2)CC1` [Example 78, 4-((S)-3-Carboxy-2-{[5-[2-((S)-2-(2-fluoroethylcarbamoyl)-pyrrolidin-1-yl)-2-oxo-ethoxy]-1-(3-fluoro-phenyl)-1H-pyrazole-3-carbonyl]-amino}-propionyl)-piperazine-1-carboxylic acid ethyl ester]: the IC50 is 190 nM.

With `CCOC(=O)N1CCN(C(=O)[C@H](CCCCOCc2ccccc2)NC(=O)c2cc(OCC(=O)N3CCC[C@H]3C(=O)NC3CCC3)n(-c3ccccc3)n2)CC1` [Example 195, 4-[(S)-6-Benzyloxy-2-({5-[2-((S)-2-cyclobutylcarbamoyl-pyrrolidin-1-yl)-2-oxo-ethoxy]-1-phenyl-1H-pyrazole-3-carbonyl}-amino)-hexanoyl]-piperazine-1-carboxylic acid ethyl ester], the IC50 was 88 nM.

For the compound `CCOC(=O)N1CCN(C(=O)[C@H](CCC(=O)O)NC(=O)c2cc(OCC(=O)N3CCC[C@H]3C(=O)NCCF)n(-c3ccccc3)n2)[C@H](C)C1` [Example 151, (R)-4-[(S)-4-Carboxy-2-({5-[2-((S)-2-(2-fluoroethyl-carbamoyl)-pyrrolidin-1-yl)-2-oxo-ethoxy]-1-phenyl-1H-pyrazole-3-carbonyl}-amino)-butyryl]-3-methyl-piperazine-1-carboxylic acid ethyl ester], the IC50 is 166 nM.

As for `CCOC(=O)N1CCN(C(=O)[C@H](CCC(=O)OC(C)C)NC(=O)c2cc(OCC(=O)N3CCC[C@H]3C(=O)NC3CCC3)n(-c3ccccc3)n2)CC1` [Example 137, 4-[(S)-2-({5-[2-((S)-2-Cyclobutylcarbamoyl-pyrrolidin-1-yl)-2-oxo-ethoxy]-1-phenyl-1H-pyrazole-3-carbonyl}-amino)-4-isopropoxycarbonyl-butyryl]-piperazine-1-carboxylic acid ethyl ester], the IC50 stood at 148 nM.

As for `CCOC(=O)N1CCN(C(=O)[C@H](CC(=O)O)NC(=O)c2cc(OCC(=O)N3CCC[C@H]3C(=O)NCC(F)F)n(-c3ccccc3)n2)CC1` [Example 57, 4-{(S)-3-Carboxy-2-[(5-{2-[(S)-2-(2,2-difluoro-ethylcarbamoyl)-pyrrolidin-1-yl]-2-oxo-ethoxy}-1-phenyl-1H-pyrazole-3-carbonyl)-amino]-propionyl}-piperazine-1-carboxylic acid ethyl ester], the IC50 was determined as 183 nM.

Take `CCCCOC(=O)N1CCN(C(=O)[C@H](CCCOC(=O)C(C)C)NC(=O)c2cc(OCC(=O)N3CCC[C@H]3C(=O)NC3CCC3)n(-c3ccccc3)n2)CC1` [Example 212, 4-[(S)-2-({5-[2-((S)-2-Cyclobutylcarbamoyl-pyrrolidin-1-yl)-2-oxo-ethoxy]-1-phenyl-1H-pyrazole-3-carbonyl}-amino)-5-isobutyryloxy-pentanoyl]-piperazine-1-carboxylic acid butyl ester]: the IC50 amounted to 17 nM.

In the case of `CCCCOC(=O)N1CCN(C(=O)[C@H](CC(F)(F)F)NC(=O)c2cc(OCC(=O)N3CCC[C@H]3C(=O)NC3CCC3)n(-c3ccccc3)n2)CC1` [Example 274, 4-[(S)-2-({5-[2-((S)-2-Cyclobutylcarbamoyl-pyrrolidin-1-yl)-2-oxo-ethoxy]-1-phenyl-1H-pyrazole-3-carbonyl}-amino)-4,4,4-trifluoro-butyryl]-piperazine-1-carboxylic acid butyl ester], the IC50 came out at 36 nM.

Turning to `CCOC(=O)N1CCN(C(=O)[C@H](CCC(=O)O)NC(=O)c2cc(OCC(=O)N3CCCC3c3cccs3)n(-c3ccccc3)n2)CC1` (stereo partly drawn) [Example 167, 4-[(S)-4-Carboxy-2-({5-[2-oxo-2-(2-thiophen-2-yl-pyrrolidin-1-yl)-ethoxy]-1-phenyl-1H-pyrazole-3-carbonyl}-amino)-butyryl]-piperazine-1-carboxylic acid ethyl ester], the IC50 is 146 nM.

Consider `CCOC(=O)N1CCN(C(=O)[C@H](CC(=O)O)NC(=O)c2cc(OCC(=O)N3CCC[C@H]3C(=O)NCC(F)F)n(-c3cccc(F)c3)n2)CC1` [Example 79, 4-((S)-3-Carboxy-2-{[5-[2-((S)-2-(2,2-difluoroethylcarbamoyl)-pyrrolidin-1-yl)-2-oxo-ethoxy]-1-(3-fluoro-phenyl)-1H-pyrazole-3-carbonyl]-amino}-propionyl)-piperazine-1-carboxylic acid ethyl ester], for which the IC50 was determined as 145 nM.

Turning to `CCCCOC(=O)N1CCN(C(=O)[C@H](CC2CCCCC2)NC(=O)c2cc(OCC(=O)N3CCC[C@H]3C(=O)NC3CCC3)n(-c3ccccc3)n2)CC1` [Example 225, 4-[(S)-2-({5-[2-((S)-2-Cyclobutylcarbamoyl-pyrrolidin-1-yl)-2-oxo-ethoxy]-1-phenyl-1H-pyrazole-3-carbonyl}-amino)-3-cyclohexyl-propionyl]-piperazine-1-carboxylic acid butyl ester], the IC50 turned out to be 136 nM.

With `CCCCOC(=O)N1CCN(C(=O)[C@@H](NC(=O)c2cc(OCC(=O)N3CCC[C@H]3C(=O)NC3CCC3)n(-c3ccccc3)n2)[C@H](C)CC)CC1` [Example 229, 4-[(2S,3R)-2-({5-[2-((S)-2-Cyclobutylcarbamoyl-pyrrolidin-1-yl)-2-oxo-ethoxy]-1-phenyl-1H-pyrazole-3-carbonyl}-amino)-3-methyl-pentanoyl]-piperazine-1-carboxylic acid butyl ester], the IC50 was determined as 22 nM.

In the case of `CCOC(=O)N1CCN(C(=O)[C@H](CCC(=O)OCc2ccccc2)NC(=O)c2cc(OCC(=O)N3CCC[C@H]3C(=O)NC3CCC3)n(-c3ccccc3)n2)CC1` [Example 132, 4-[(S)-2-({5-[2-((S)-2-Cyclobutylcarbamoyl-pyrrolidin-1-yl)-2-oxo-ethoxy]-1-phenyl-1H-pyrazole-3-carbonyl}-amino)-4-benzyloxycarbonyl-butyryl]-piperazine-1-carboxylic acid ethyl ester], the IC50 worked out at 25 nM.

For the compound `CCCCOC(=O)N1CCN(C(=O)[C@H](CCCCOCc2ccccc2)NC(=O)c2cc(OCC(=O)N3CCC[C@H]3C(=O)NC3CCC3)n(-c3ccccc3)n2)CC1` [Example 196, 4-[(S)-6-Benzyloxy-2-({5-[2-((S)-2-cyclobutylcarbamoyl-pyrrolidin-1-yl)-2-oxo-ethoxy]-1-phenyl-1H-pyrazole-3-carbonyl}-amino)-hexanoyl]-piperazine-1-carboxylic acid butyl ester], the IC50 is 23 nM.
